The values that follow are results of earlier work, collected in patent US20150202168A1, “ORAL FILM FORMULATIONS COMPRISING DAPOXETINE AND TADALAFIL” (Sanovel Ilac Sanayi Ve Ticaret Anonim Sirketi, priority 2012, published 2015).

For series [1] the following is noted: following oral administration.
For series [2] the following is noted: Int J Impot Res. 2006; 18(1):104-10.
The subject of another series is human body. The note with it: studies conducted.

`CN1CC(=O)N2[C@H](c3ccc4c(c3)OCO4)c3[nH]c4ccccc4c3C[C@@H]2C1=O` [Tadalafil, (6R-trans)-6-(1,3-benzodioxol-5-yl)-2,3,6,7,12,12a-hexahydro-2-methyl-pyrazino[1′,2′:1,6]pyrido[3,4-b]indole-1,4-dione]: the solubility in water entry was “poorly soluble”.

On to `CN(C)[C@@H](CCOc1cccc2ccccc12)c1ccccc1` [dapoxetine], for which, in series [1], the “binding to the plasma proteins” value is given as “almost completely”. For the same molecule, the “interactions with PDE5 inhibitors” value in series [2] is given as “does not have pharmaceutical interactions”.

In the case of Mogroside, the “toxicity to human body” value in the series with human body is recorded as “not toxic”.
